In PMC4674391 (Archives of toxicology, 2015):
Counter-ions that a name gives are not always drawn.

Assays:
zfOatp1f2-1 [1] = type: in vitro ADME, zebrafish (Danio rerio)
zfOatp1f1 [2] = type: in vitro ADME, zebrafish (Danio rerio)
zfOatp1f2-2 [3] = type: in vitro ADME, zebrafish (Danio rerio)
zfOatp1f3 [4] = type: in vitro ADME, zebrafish (Danio rerio)
zfOatp4a1 = type: in vitro ADME, zebrafish (Danio rerio)
zfOatp1f4-2 [5] = type: in vitro ADME, zebrafish (Danio rerio)
zfOatp2b1 = type: in vitro ADME, zebrafish (Danio rerio)
zfOatp1f4-1 [6] = type: in vitro ADME, zebrafish (Danio rerio)
zfOatp1d1 [7] = type: in vitro ADME, zebrafish (Danio rerio)
zfOatp1f3 [8] = type: in vitro ADME, zebrafish (Danio rerio); remark: listed apart in the source
zfOatp1d1 [9] = type: in vitro ADME, zebrafish (Danio rerio); remark: listed apart in the source
zfOatp1f1 [10] = type: in vitro ADME, zebrafish (Danio rerio); remark: listed apart in the source
zfOatp1f2-1 [11] = type: in vitro ADME, zebrafish (Danio rerio); remark: listed apart in the source
zfOatp1f4-1 [12] = type: in vitro ADME, zebrafish (Danio rerio); remark: listed apart in the source
zfOatp1f4-2 [13] = type: in vitro ADME, zebrafish (Danio rerio); remark: listed apart in the source
OATPs = settings: cited from earlier work
[14] = system: Ser/Thr protein phosphatases (ser/thrPP); settings: cited from earlier work
zfOatp1f2-2 [15] = type: in vitro ADME, zebrafish (Danio rerio); remark: listed apart in the source
carp = settings: in vivo, po; cited from earlier work
[16] = uptake for up to 30 min, transfected HEK293 (Figure S1)

## C[C@]12CC[C@@H]3c4ccc(OS(=O)(=O)O)cc4CC[C@H]3[C@@H]1CCC2=O [E3S, estrone sulfate ammonium salt]
zfOatp1f2-1 [1]; [16]
  [3H] E3S transport, prolonged uptake: no [^3H] E3S transport was observed
zfOatp1f1 [2]; [16]
  [3H] E3S transport, prolonged uptake: no [^3H] E3S transport was observed

## CN(Cc1cnc2nc(N)nc(N)c2n1)c1ccc(C(=O)N[C@@H](CCC(=O)O)C(=O)O)cc1 [MTX, methotrexate disodium salt]
zfOatp1f2-2 [3]
  transport of Oatp substrate (uptake vs empty vector cells): none of the other zfOatps transported
zfOatp1f2-1 [1]
  transport of Oatp substrate (uptake vs empty vector cells): did not transport any of the three substrates
zfOatp1f3 [4]
  transport of Oatp substrate (uptake vs empty vector cells): none of the other zfOatps transported
zfOatp1f1 [2]
  transport of Oatp substrate (uptake vs empty vector cells): did not transport any of the three substrates
zfOatp4a1
  transport of Oatp substrate (uptake vs empty vector cells): did not transport any of the three substrates
zfOatp1f4-2 [5]
  transport of Oatp substrate (uptake vs empty vector cells): none of the other zfOatps transported
zfOatp2b1
  transport of Oatp substrate (uptake vs empty vector cells): did not transport any of the three substrates
zfOatp1f4-1 [6]
  transport of Oatp substrate (uptake vs empty vector cells): none of the other zfOatps transported
zfOatp1d1 [7]
  transport of Oatp substrate (uptake vs empty vector cells): transported

## C[C@H](CCC(=O)NCCS(=O)(=O)O)[C@H]1CC[C@H]2[C@@H]3[C@H](O)C[C@@H]4C[C@H](O)CC[C@]4(C)[C@H]3C[C@H](O)[C@]12C [TCA, taurocholic acid]
zfOatp1f2-1 [1]
  transport of Oatp substrate (uptake vs empty vector cells): did not transport any of the three substrates
zfOatp1f1 [2]
  transport of Oatp substrate (uptake vs empty vector cells): did not transport any of the three substrates
zfOatp1f4-2 [5]
  transport of Oatp substrate (uptake vs empty vector cells): none of the other zfOatps transported
zfOatp2b1
  transport of Oatp substrate (uptake vs empty vector cells): did not transport any of the three substrates
zfOatp1f4-1 [6]
  transport of Oatp substrate (uptake vs empty vector cells): none of the other zfOatps transported
zfOatp1d1 [7]
  transport of Oatp substrate (uptake vs empty vector cells): transported

## Microcystin-LF [MC-LF]
zfOatp1f3 [8]
  MC congener transport (screen): did not transport any of the four MC-congeners tested
zfOatp1d1 [9]
  MC congener transport (screen): transported all tested MC-congeners
  affinity of zfOatp1d1 (Km), MC-LF compared to MC-LR: 2 fold
  concentration dependent uptake (saturability): saturable
  relative Vmax (uptake velocity), MC-LF versus MC-LR: 6 fold
  time within which transport occurred: ≤ 1 h
zfOatp1f1 [10]
  MC congener transport (screen): absence of MC transport
zfOatp1f2-1 [11]
  MC congener transport (screen): did take up
  time dependent MC uptake, relative speed: slower than that observed for zfOatp1d1
zfOatp1f4-1 [12]
  MC congener transport (screen): transported
  time dependent MC uptake, relative speed: Comparable transport
zfOatp1f4-2 [13]
  MC congener transport (screen): transported
  time dependent MC uptake, relative speed: Comparable transport
OATPs
  MC congener transport by OATPs: transport was demonstrated
[14]
  inhibition of ser/thrPP activities: approximately equimolar concentrations
zfOatp1f2-2 [15]
  MC congener transport (screen): did not transport any of the four MC-congeners tested

## Microcystin-LR [MC-LR]
zfOatp1f3 [8]
  MC congener transport (screen): did not transport any of the four MC-congeners tested
zfOatp1d1 [9]
  MC congener transport (screen): transported all tested MC-congeners
  concentration dependent uptake (saturability): saturable
  time up to which uptake is linear: up to 6 h
zfOatp1f1 [10]
  MC congener transport (screen): absence of MC transport
zfOatp1f2-1 [11]
  MC congener transport (screen): did take up
  time dependent MC uptake, relative speed: much slower than MC-LW and MC-LF
OATPs
  MC congener transport by OATPs: comparably minor extent
[14]
  inhibition of ser/thrPP activities: approximately equimolar concentrations
carp
  MC-LR in brain and muscle tissue: detectable
  pathological changes in hepatopancreas and kidney: time-dependent pathological changes
zfOatp1f2-2 [15]
  MC congener transport (screen): did not transport any of the four MC-congeners tested

## Microcystin-LW [MC-LW]
zfOatp1f3 [8]
  MC congener transport (screen): did not transport any of the four MC-congeners tested
zfOatp1d1 [9]
  MC congener transport (screen): transported all tested MC-congeners
  time within which transport occurred: ≤ 1 h
zfOatp1f1 [10]
  MC congener transport (screen): absence of MC transport
zfOatp1f2-1 [11]
  MC congener transport (screen): did take up
  time dependent MC uptake, relative speed: slower than that observed for zfOatp1d1
OATPs
  MC congener transport by OATPs: transport was demonstrated
[14]
  inhibition of ser/thrPP activities: approximately equimolar concentrations
zfOatp1f2-2 [15]
  MC congener transport (screen): did not transport any of the four MC-congeners tested

## Microcystin-RR [MC-RR]
zfOatp1f3 [8]
  MC congener transport (screen): did not transport any of the four MC-congeners tested
zfOatp1d1 [9]
  MC congener transport (screen): transported all tested MC-congeners
  time after which nearly linear uptake plateaus: 12 h
zfOatp1f1 [10]
  MC congener transport (screen): absence of MC transport
OATPs
  MC congener transport by OATPs: lacked transport
[14]
  inhibition of ser/thrPP activities: approximately equimolar concentrations
zfOatp1f2-2 [15]
  MC congener transport (screen): did not transport any of the four MC-congeners tested
